This note sets out measurements from patent US10988444B2, “Antimicrobial compounds” (NEWSOUTH INNOVATIONS PTY LIMITED, priority 2016, dated 2021).

Values after ≈ are worked out from the molar mass of the structure shown.

As usually defined, the inhibition is the share of the control response that was lost under treatment. High values mean a response far below the control, low ones a response near the control.

The test system of assay [1] is E. coli. The assay is described as follows: Minimal inhibitory concentration (MIC) determination, Example 1. Particulars: 24 h, MHB, 37° C.; for MIC: Escherichia coli, read-out: Minimum inhibitory concentration (MIC) E. coli. The class given is cell-based. How it is done: (§1) The antibacterial activity of the compounds was determined by the determination of minimal inhibitory concentration (MIC) by following the previously published protocol (see Nizalapur, S.; Ho, K. K.; Kimyon, Ö.; Yee, E.; Berry, T.; Manefield, M.; Cranfield, C. G.; Willcox, M.; Black, D. S.; Kumar, N. Org. Biomol. Chem. 2016, 14, 3623). The compounds to be tested were dissolved and diluted in autoclaved Millipore water. A single colony of bacteria was cultured overnight in TSB at 37° C. The resulting bacteria were collected by centrifugation and re-suspended in the same volume of MHB twice. Optical density (OD) of the resulting culture was adjusted to 0.1 at 600 nm (10^8 CFU/mL) in MHB, and the adjusted culture was further diluted to […] in MHB. Then, 100 μL of the bacterial solution was added to wells of a 96-well plate containing 100 μL of serially diluted compound. Two controls were also prepared: one containing 100 μL of MHB media and 100 μL sterile water, and the other containing 100 μL of bacterial solution and 100 μL sterile water. […] The MIC value was determined as the lowest concentration of compound that inhibited the complete growth of the bacteria (i.e. OD similar to that of the control having no bacteria). Each experiment was performed in triplicate and was repeated in three independent experiments.
(§2) The results of the MIC assay are given below in Table 1.

In assay [2] the test system is S. aureus. Described as above. Particulars: MHB, 37° C., 24 h; for MIC: Staphylococcus aureus, read-out: Minimum inhibitory concentration (MIC) S. aureus. In kind it is cell-based. As for the experimental part:
as §1, §2

Assay [3] concerns S. marcescens. The assay is described as follows: Biofilm inhibition assay (inhibition of biofilm formation), crystal violet staining. In kind it is cell-based. Particulars: Serratia marcescens, 24 h. How it is done:
(§3) Bacterial cultures were grown in TSB media for overnight at 37° C. with shaking at 150 r.p.m. Cultures were diluted (1:20) in YPD medium and 200 μl aliquots were dispensed to flat bottom 96-well plate wells (Sarstedt Australia). Cultures were supplemented with varying concentrations of synthetic compounds dissolved in water. For no-established biofilm assay, cultures were grown in 96-well plate wells overnight along with synthetic compounds. Control cultures were supplemented with an equal amount of water. Plates were sealed with self-adhesive microplate sealers (TopSeal-A, PerkinElmer) to allow air diffusion and to prevent condensation. Cultures were incubated overnight at 37° C. with shaking at 150 r.p.m. Biofilms adhered on polystyrene substratum were quantified by crystal violet staining as described previously (see Wiegand, I.; Hilpert, K.; Hancock, R. E. W. Nat. Protocols 2008, 3 (2), 163-175). All cultures were prepared in triplicates. Error bars represent the standard error of three independent experiments (n=3).
(§4) The biofilm disruption activities of the compounds were investigated using crystal violet staining according to a previously published protocol (G. A. O'Toole, J Vis Exp, 2011, (47), pii: 2437, DOI: 10.3791/2437, 2437). The ability of compounds (34-38, 51-56, 61, 62, 65 and 66) to disrupt the established biofilms of the Gram-positive bacteria S. aureus and the Gram-negative bacteria Pseudomonas aeruginosa, Serratia marcescens and E. coli, was determined at a concentration of 250 μM. In this assay, bacterial cultures were grown on a polystyrene substratum overnight prior to treatment with the compounds. In addition, the ability of these compounds to inhibit the formation of biofilms of P. aeruginosa and S. marcescens was also investigated at 250 μM, whereby the bacterial cultures were grown in the presence of test compounds.

In assay [4] the test system is E. coli. The assay is described as follows: Biofilm disruption assay, established biofilms, crystal violet staining. In kind it is cell-based. The note with it: 250 μM, 24 h treatment. How it is done: as §3, with “For pre-established” for “For no-established”, “overnight prior to supplementation” for “overnight along”, “of DMSO.” for “of water.”
as §4

Assay [5] relates to S. marcescens. The description is as above. The class given is cell-based, Serratia marcescens. The note with it: 250 μM, 24 h treatment. As for the experimental part: as §3, with “For pre-established” for “For no-established”, “overnight prior to supplementation” for “overnight along”, “of DMSO.” for “of water.”
as §4

Assay [6] has as its system S. aureus. The assay is described as above. The class given is cell-based. The note with it: 250 μM, 24 h treatment. As for the experimental part:
as §3, with “For pre-established” for “For no-established”, “overnight prior to supplementation” for “overnight along”, “of DMSO.” for “of water.”
as §4

The subject of assay [7] is Pseudomonas aeruginosa (PAO1). The description is as above. The class given is cell-based. Particulars: 250 μM, 24 h treatment. As for the experimental part:
as §3, with “For pre-established” for “For no-established”, “overnight prior to supplementation” for “overnight along”, “of DMSO.” for “of water.”
as §4

In the next assay the test system is E. coli (K12). The assay can be described thus: Minimal inhibitory concentration (MIC) assay, broth micro dilution, Example 3. In kind it is cell-based. Particulars: Escherichia coli; K12, MHB, 37° C., 18-24 hours; read-out: Minimum inhibitory concentration (MIC) E. coli. As for the experimental part: (§5) Compounds 95, 96, 106, 107, 109, 117 were assessed by determining their minimum inhibitory concentration (MIC) according through broth micro dilution assay using the procedure described by M. A. Wikler, Methods for dilution antimicrobial susceptibility tests for bacteria that grow aerobically: approved standard, Clinical and Laboratory Standards Institute, 2006. Briefly, bacteria were grown to mid-log phase in Muller Hinton broth (MHB) with shaking at 120 rpm and incubated at 37° C. for 18-24 hours. Following incubation, bacteria were washed three times in PBS pH 7.4 at 3500 g for 10 minutes. After washing, bacteria were diluted with fresh MHB. The turbidity of the bacterial suspensions were adjusted so that OD660 nm was 0.1, which gave 1×10^8 cfu/ml, and then further diluted to achieve 1-2×10^5 cfu/ml as a final bacterial concentration. Each compound was diluted (250-3.9 μM) through two-fold dilution. Wells in microtitre plates were loaded with 100 μl of inoculum containing 1-2×10^5 cfu/ml bacteria. Wells without any compound and containing only bacteria were used as a negative control (i.e. no inhibition of growth). Wells without bacteria but containing compound acted as another control. The microtitre plate was wrapped with paraffin to prevent evaporation and incubated with shaking at 120 rpm and 37° C. for 18-24 hours. After incubation, spectrophotometric reading was taken. The well without any bacterial growth and showing zero spectrophotometric reading regarded as mic of the compounds.

The test system of the next assay is S. aureus (SA38). The assay is described as above. The class given is cell-based. Particulars: Staphylococcus aureus; SA38, MHB, 37° C., 18-24 hours; read-out: Minimum inhibitory concentration (MIC) S. aureus. How it is done:
as §5

In the case of `Cl.N=C(N)NCCCNC(=O)C(=O)c1ccccc1NC(=O)c1ccc2ccccc2c1` [Compound 34, N-(2-(2-((3-Guanidinopropyl)amino)-2-oxoacetyl)phenyl)-2-naphthamide hydrochloride], the MIC is greater than 110 µg/mL in the assay on E. coli [1] and 23 µg/mL with S. aureus [2].
In the assay with S. marcescens [3], `Cl.N=C(N)NCCCNC(=O)C(=O)c1cc(F)ccc1NC(=O)c1ccc2ccccc2c1` [Compound 37, N-(4-Fluoro-2-(2-((3-guanidinopropyl)amino)-2-oxoacetyl)phenyl)-2-naphthamide hydrochloride] returned an inhibition at 250 µM of 74%. Further, the MIC in the assay on E. coli [1] was 59 µg/mL; in the assay with S. aureus [2], 30 µg/mL. The “disruption of established biofilms of E. coli” value in the assay with E. coli [4] is reported as 53%.
For the compound `Cc1ccc(NC(=O)c2ccc3ccccc3c2)c(C(=O)C(=O)NCCCNC(=N)N)c1.Cl` [Compound 38, N-(2-(2-((3-Guanidinopropyl)amino)-2-oxoacetyl)-4-methylphenyl)-2-naphthamide hydrochloride], the MIC in the assay on E. coli [1] is greater than 110 µg/mL; with S. aureus [2], 93 µg/mL.
For `Cl.N=C(N)NCCCC[C@H](NC(=O)C(=O)c1ccccc1NC(=O)c1ccc2ccccc2c1)C(=O)O` [Compound 51, N^2-(2-(2-(2-naphthamido)phenyl)-2-oxoacetyl)-N^6-carbamimidoyllysine hydrochloride], the “disruption of established biofilms of S. marcescens” value with S. marcescens [5] is reported as 48%. Moreover, the MIC in the assay on E. coli [1] came to 66 µg/mL; in the assay with S. aureus [2], 53 µg/mL.
In the assay with S. marcescens [3], `Cl.N=C(N)NCCCC[C@H](NC(=O)C(=O)c1cc(Br)ccc1NC(=O)c1ccc2ccccc2c1)C(=O)O` [Compound 52, N^2-(2-(2-(2-naphthamido)-5-bromophenyl)-2-oxoacetyl)-N^6-carbamimidoyllysine hydrochloride] returned an inhibition at 250 µM of 72%. In addition, the MIC in the assay on E. coli [1] and with S. aureus [2] was 77 µg/mL in each case. For the same compound, the “disruption of established biofilms of S. aureus” value with S. aureus [6] came out at 42%.
`Cc1ccc(NC(=O)c2ccc3ccccc3c2)c(C(=O)C(=O)N[C@@H](CCCCNC(=N)N)C(=O)O)c1.Cl` [Compound 54, N^2-(2-(2-(2-naphthamido)-5-methylphenyl)-2-oxoacetyl)-N^6-carbamimidoyllysine hydrochloride]: the MIC in the assay on E. coli [1] amounted to 68 µg/mL; with S. aureus [2] it was 54 µg/mL. For the same compound, the “Minimum inhibitory concentration (MIC) E. coli” value with E. coli [1] (hydrochloride) turned out to be 69 µg/mL. In addition, in assay [7], the “disruption of established biofilms of P. aeruginosa” value is on record as 46%.
For the compound `CC(=O)C(CCCCNC(=N)N)NC(=O)C(=O)c1ccccc1NC(=O)c1ccc2ccccc2c1.Cl` (centres unmarked) [Compound 55, N-(2-(2-((7-guanidino-2-oxoheptan-3-yl)amino)-2-oxoacetyl)phenyl)-2-naphthamide hydrochloride], the MIC in the assay with E. coli [1] was 17 µg/mL; in the assay on S. aureus [2], greater than 140 µg/mL.
Compound `CC(=O)C(CCCCNC(=N)N)NC(=O)C(=O)c1cc(Br)ccc1NC(=O)c1ccc2ccccc2c1.Cl` (centres unmarked) [Compound 56, N-(4-bromo-2-(2-((7-guanidino-2-oxoheptan-3-yl)amino)-2-oxoacetyl)phenyl)-2-naphthamide hydrochloride] had an inhibition at 250 µM in the assay with S. marcescens [3] of 61%. For the same compound, the MIC was 19 µg/mL with E. coli [1] and greater than 140 µg/mL with S. aureus [2].
Turning to `NCCNC(=O)[C@H](Cc1c[nH]c2ccccc12)NC(=O)c1cc(Br)ccc1NC(=O)c1ccc2ccccc2c1` [Compound 95, (S)—N-(2-((1-((2-Aminoethyl)amino)-3-(1H-indol-3-yl)-1-oxopropan-2-yl)carbamoyl)-4-bromophenyl)-2-naphthamide], the MIC in the assay with E. coli (K12) is greater than 125 µM; in the assay on S. aureus (SA38) it was 3.9 µM (≈ 2.33 µg/mL).
`NCCNC(=O)[C@H](Cc1c[nH]c2ccccc12)NC(=O)c1cc(F)ccc1NC(=O)c1ccc2ccccc2c1` [Compound 96, (S)—N-(2-((1-((2-Aminoethyl)amino)-3-(1H-indol-3-yl)-1-oxopropan-2-yl)carbamoyl)-4-fluorophenyl)-2-naphthamide]: the MIC is 15.6 µM (≈ 8.39 µg/mL) with E. coli (K12) and 7.8 µM (≈ 4.19 µg/mL) in the assay on S. aureus (SA38).
In the same order, the values of `N=C(N)NCCNC(=O)[C@H](Cc1c[nH]c2ccccc12)NC(=O)c1cc(Br)ccc1NC(=O)c1ccc2ccccc2c1` [Compound 106, (S)—N-(4-Bromo-2-((1-((2-guanidinoethyl)amino)-3-(1H-indol-3-yl)-1-oxopropan-2-yl)carbamoyl)phenyl)-2-naphthamide] are 15.6 µM (≈ 9.99 µg/mL) and 3.9 µM (≈ 2.5 µg/mL).
On to `N=C(N)NCCNC(=O)[C@H](Cc1c[nH]c2ccccc12)NC(=O)c1cc(F)ccc1NC(=O)c1ccc2ccccc2c1` [Compound 107, (S)—N-(4-Fluoro-2-((1-((2-guanidinoethyl)amino)-3-(1H-indol-3-yl)-1-oxopropan-2-yl)carbamoyl)phenyl)-2-naphthamide], for which the results for the MIC with E. coli (K12) and in the assay with S. aureus (SA38) were 125 µM (≈ 72.5 µg/mL) and 1.8 µM (≈ 1.04 µg/mL), respectively.
Take `COc1ccc(NC(=O)c2ccc3ccccc3c2)c(C(=O)N[C@@H](Cc2c[nH]c3ccccc23)C(=O)NCCNC(=N)N)c1` [Compound 109, (S)—N-(2-((1-((2-Guanidinoethyl)amino)-3-(1H-indol-3-yl)-1-oxopropan-2-yl)carbamoyl)-4-methoxyphenyl)-2-naphthamide]: the MIC in the assay with E. coli (K12) was found to be 62.5 µM (≈ 37 µg/mL); in the assay on S. aureus (SA38), 7.8 µM (≈ 4.62 µg/mL).
For `CN(C)CCNC(=O)[C@H](Cc1c[nH]c2ccccc12)NC(=O)c1cc(Br)ccc1NC(=O)c1ccc2ccccc2c1` [Compound 117, (S)-2-(2-(2-(2-Naphthamido)-5-bromobenzamido)-3-(1H-indol-3-yl)propanamido)-N,N-dimethylethan-1-aminium chloride] the same measures were 125 µM and 7.8 µM.
Take Gentamicin [reference compound]: the “Minimum inhibitory concentration (MIC) E. coli” value in the assay with E. coli [1] stood at 2.5 µg/mL. Further, in the assay on S. aureus [2], the “Minimum inhibitory concentration (MIC) S. aureus” value was less than 0.6 µg/mL.
